Results published in patent publication US20220265629A1, “TREATMENT OF SYSTOLIC DYSFUNCTION AND HEART FAILURE WITH REDUCED EJECTION FRACTION WITH THE COMPOUND (R)-4-(1-((3-(DIFLUOROMETHYL)-1-METHYL-1H-PYRAZOL-4-YL)SULFONYL)-1-FLUOROETHYL)-N-(ISOXAZOL-3-YL)PIPERIDINE-1-CARBOXAMIDE” (MyoKardia, Inc., priority 2019, published 2022).
Like-named read-outs stand apart in the source and are kept apart here.

Test: Single ascending oral dose study in healthy volunteers: plasma pharmacokinetics
Format: in vivo, human
Conditions: human, plasma, oral; for concentration at 6 h: 6 Hours Postdose; for concentration at 12 h: 12 Hours Postdose; for concentration at 24 h: 24 Hours Postdose; for concentration at 48 h: 48 Hours Postdose; for concentration at 72 h: 72 Hours Postdose
Description: This example describes the first-in-human study of Compound I. Based on its mechanism of action, Compound I may offer a targeted therapy for patients with DCM caused by genetic or nongenetic mechanisms. The study was a randomized, double-blind, placebo-controlled, sequential group, single-ascending (oral) close study in healthy subjects aged 18-55 years. Eight dosing cohorts, each comprising eight healthy subjects, were enrolled. Within each cohort, subjects were randomized 6:2 to Compound I:placebo.
Subjects were resident at the clinical site for up to 5 days and 4 nights, from Day −1 (the day before dosing) to Day 4, and received a single dose of Compound I or placebo on Day 1. ECG telemetry was initiated 1 hour preclose and continued through 48 hours postclose (Day 3). Any subject with a preclose resting HR≥80 beats per minute was considered ineligible and not treated. […] Subjects returned for a safety follow-up visit 7 days (±1 day) after dosing.
All randomized study subjects received either Compound I or matching placebo as a single oral dose after a fasting period of at least 6 hours. Compound I drug substance is a crystalline, free-base, synthetic molecule with a molecular weight of 435.4 g/mol.
Compound I was provided as a powder for oral suspension. Placebo was provided as calcium carbonate powder. Both treatments were closed orally as a suspension. The suspension was made using Ora-Plus® suspending vehicle (Perrigo) and a cherry syrup flavoring vehicle (Humco), mixed 50% to 50%. The suspension was followed by approximately 100 mL water. The suspension was made up within 14 days from the time in which it was closed which was consistent with the stability data on the suspension. The suspension was made up so the volume administered to the subjects who received Compound I was the same at 20 mL.
Each subject received a close according to the cohort in which they were enrolled. Cohorts were enrolled sequentially, with each cohort receiving an escalated dose of Compound I. The closes administered were 3 mg, 10 mg, 25 mg, 50 mg, 100 mg, 175 mg, 350 mg, and 525 mg, respectively.
The concentrations of Compound I in human plasma and urine were quantitated by high performance liquid chromatography with tandem mass spectrometric detection (LC MS/MS) (Biological sample analysis study report Alturas AD17-726). Plasma samples were extracted by protein precipitation with acetonitrile containing internal standard MYK-5654. The calibration curves were linear over concentration range of 0.500 to 1000 ng/mL with a lower limit of quantification (LLOQ) of 0.500 ng/mL.
The PK Population included all subjects who received Compound I. Blood samples were collected for PK assessments. The actual timing of the samples may have been modified and/or up to an additional 2 samples may have been requested by the SRC after review of the data from previous cohorts. It was important that PK sampling occurred as closely as possible to the scheduled time (±10%). Both blood and urine samples were used for PK assessments.
In addition, for subjects who received placebo, a single plasma sample near the predicted tmax of Compound I was evaluated to confirm the lack of circulating Compound I. Plasma concentration data for Compound I was summarized using descriptive statistics, including mean, standard deviation (SD), median, minimum, and maximum values, and percent coefficient of variation. Other PK parameters included (but were not limited to) Cmax, tmax, AUC, t1/2, and MRT. Additionally, the apparent terminal-phase terminal half-life was calculated. The close proportionality of AUC and Cmax was explored.

[1] = 100 mg, 100 mg, read-out: Plasma concentration, Geometric Mean
[2] = 100 mg, 100 mg, read-out: Plasma concentration, Mean
[3] = 100 mg, 100 mg, read-out: Plasma concentration, Median
[4] = 175 mg, 175 mg, read-out: Plasma concentration, Geometric Mean
[5] = 175 mg, 175 mg, read-out: Plasma concentration, Mean
[6] = 175 mg, 175 mg, read-out: Plasma concentration, Median

Cn1cc(S(=O)(=O)[C@@](C)(F)C2CCN(C(=O)Nc3ccon3)CC2)c(C(F)F)n1 [Compound I, (R)-4-(1-((3-(difluoromethyl)-1-methyl-1H-pyrazol-4-yl)sulfonyl)-1-fluoroethyl)-N-(isoxazol-3-yl)piperidine-1-carboxamide]
Vd/F (50 mg, read-out: Vz/F, Mean): 87.9 L
Vd/F (50 mg, read-out: Vz/F, Median): 90.6 L
concentration at 6 h [1]: 934 ng/mL
concentration at 6 h [2]: 947 ng/mL
concentration at 6 h [3]: 935 ng/mL
concentration at 12 h [1]: 661 ng/mL
concentration at 12 h [2]: 674 ng/mL
concentration at 12 h [3]: 637 ng/mL
concentration at 24 h [1]: 374 ng/mL
concentration at 24 h [2]: 384 ng/mL
concentration at 24 h [3]: 372 ng/mL
concentration at 48 h [1]: 71 ng/mL
concentration at 48 h [2]: 91.1 ng/mL
concentration at 48 h [3]: 104 ng/mL
concentration at 72 h [2]: 23.2 ng/mL
concentration at 72 h [3]: 24.2 ng/mL
AUC(0-t) (100 mg, read-out: AUC0-24, Geometric Mean): 15200 ng·h/mL
AUC(0-t) (100 mg, read-out: AUC0-24, Mean): 15400 ng·h/mL
AUC(0-t) (100 mg, read-out: AUC0-24, Median): 14900 ng·h/mL
AUC(0-t) (100 mg, read-out: AUC0-48, Geometric Mean): 21100 ng·h/mL
AUC(0-t) (100 mg, read-out: AUC0-48, Mean): 21400 ng·h/mL
AUC(0-t) (100 mg, read-out: AUC0-48, Median): 21600 ng·h/mL
AUC(0-t) (100 mg, read-out: AUC0-last, Geometric Mean): 21700 ng·h/mL
AUC(0-t) (100 mg, read-out: AUC0-last, Mean): 22700 ng·h/mL
AUC(0-t) (100 mg, read-out: AUC0-last, Median): 22400 ng·h/mL
AUC(0-inf) (100 mg, read-out: AUC0-∞, Geometric Mean): 21300 ng·h/mL
AUC(0-inf) (100 mg, read-out: AUC0-∞, Mean): 21700 ng·h/mL
AUC(0-inf) (100 mg, read-out: AUC0-∞, Median): 18700 ng·h/mL
Cmax (100 mg, read-out: Cmax, Geometric Mean): 1000 ng/mL
Cmax (100 mg, read-out: Cmax, Mean): 1020 ng/mL
Cmax (100 mg, read-out: Cmax, Median): 983 ng/mL
half-life (100 mg, read-out: Half-Life Lambda Z, Geometric Mean (converted)): 665 min
half-life (100 mg, read-out: Half-Life Lambda Z, Mean (converted)): 700 min
half-life (100 mg, read-out: Half-Life Lambda Z, Median (converted)): 752 min
MRT (100 mg, read-out: Mean Residence Time, Geometric Mean): 19.1 h
MRT (100 mg, read-out: Mean Residence Time, Mean): 19.5 h
MRT (100 mg, read-out: Mean Residence Time, Median): 20.4 h
Tmax (100 mg, read-out: Tmax, Geometric Mean): 4.42 h
Tmax (100 mg, read-out: Tmax, Mean): 4.5 h
Tmax (100 mg, read-out: Tmax, Median): 5 h
Vd/F (100 mg, read-out: Vz/F, Geometric Mean): 74.9 L
Vd/F (100 mg, read-out: Vz/F, Mean): 77.9 L
Vd/F (100 mg, read-out: Vz/F, Median): 82.1 L
concentration at 6 h [4]: 1260 ng/mL
concentration at 6 h [5]: 1270 ng/mL
concentration at 6 h [6]: 1250 ng/mL
concentration at 12 h [4]: 1040 ng/mL
concentration at 12 h [5]: 1050 ng/mL
concentration at 12 h [6]: 1040 ng/mL
concentration at 24 h [4]: 650 ng/mL
concentration at 24 h [5]: 664 ng/mL
concentration at 24 h [6]: 690 ng/mL
concentration at 48 h [4]: 203 ng/mL
concentration at 48 h [5]: 212 ng/mL
concentration at 48 h [6]: 224 ng/mL
concentration at 72 h [4]: 64 ng/mL
concentration at 72 h [5]: 71.3 ng/mL
concentration at 72 h [6]: 73.2 ng/mL
AUC(0-t) (175 mg, read-out: AUC0-24, Geometric Mean): 22000 ng·h/mL
AUC(0-t) (175 mg, read-out: AUC0-24, Mean): 22300 ng·h/mL
AUC(0-t) (175 mg, read-out: AUC0-24, Median): 21700 ng·h/mL
AUC(0-t) (175 mg, read-out: AUC0-48, Geometric Mean): 32300 ng·h/mL
AUC(0-t) (175 mg, read-out: AUC0-48, Mean): 32800 ng·h/mL
AUC(0-t) (175 mg, read-out: AUC0-48, Median): 32700 ng·h/mL
AUC(0-t) (175 mg, read-out: AUC0-last, Geometric Mean): 38200 ng·h/mL
AUC(0-t) (175 mg, read-out: AUC0-last, Mean): 39000 ng·h/mL
AUC(0-t) (175 mg, read-out: AUC0-last, Median): 39600 ng·h/mL
AUC(0-inf) (175 mg, read-out: AUC0-∞, Geometric Mean): 38300 ng·h/mL
AUC(0-inf) (175 mg, read-out: AUC0-∞, Mean): 39100 ng·h/mL
AUC(0-inf) (175 mg, read-out: AUC0-∞, Median): 39700 ng·h/mL
Cmax (175 mg, read-out: Cmax, Geometric Mean): 1300 ng/mL
Cmax (175 mg, read-out: Cmax, Mean): 1320 ng/mL
Cmax (175 mg, read-out: Cmax, Median): 1300 ng/mL
half-life (175 mg, read-out: Half-Life Lambda Z, Geometric Mean (converted)): 945 min
half-life (175 mg, read-out: Half-Life Lambda Z, Mean (converted)): 950 min
half-life (175 mg, read-out: Half-Life Lambda Z, Median (converted)): 982 min
MRT (175 mg, read-out: Mean Residence Time, Geometric Mean): 24.4 h
MRT (175 mg, read-out: Mean Residence Time, Mean): 24.6 h
MRT (175 mg, read-out: Mean Residence Time, Median): 24.4 h
Tmax (175 mg, read-out: Tmax, Geometric Mean): 5.07 h
Tmax (175 mg, read-out: Tmax, Mean): 5.11 h
Tmax (175 mg, read-out: Tmax, Median): 5 h
Vd/F (175 mg, read-out: Vz/F, Geometric Mean): 104 L
Vd/F (175 mg, read-out: Vz/F, Mean): 106 L
Vd/F (175 mg, read-out: Vz/F, Median): 101 L
AUC(0-t) (350 mg + 525 mg, read-out: AUC0-24, Geometric Mean): 40900 ng·h/mL
AUC(0-t) (350 mg + 525 mg, read-out: AUC0-24, Mean): 42100 ng·h/mL
AUC(0-t) (350 mg + 525 mg, read-out: AUC0-24, Median): 38500 ng·h/mL
AUC(0-t) (350 mg + 525 mg, read-out: AUC0-48, Geometric Mean): 60500 ng·h/mL
AUC(0-t) (350 mg + 525 mg, read-out: AUC0-48, Mean): 62400 ng·h/mL
AUC(0-t) (350 mg + 525 mg, read-out: AUC0-48, Median): 57400 ng·h/mL
AUC(0-t) (350 mg + 525 mg, read-out: AUC0-last, Geometric Mean): 70600 ng·h/mL
AUC(0-t) (350 mg + 525 mg, read-out: AUC0-last, Mean): 74000 ng·h/mL
AUC(0-t) (350 mg + 525 mg, read-out: AUC0-last, Median): 68600 ng·h/mL
AUC(0-inf) (350 mg + 525 mg, read-out: AUC0-∞, Geometric Mean): 71000 ng·h/mL
AUC(0-inf) (350 mg + 525 mg, read-out: AUC0-∞, Mean): 74400 ng·h/mL
AUC(0-inf) (350 mg + 525 mg, read-out: AUC0-∞, Median): 68800 ng·h/mL
Cmax (350 mg + 525 mg, read-out: Cmax, Geometric Mean): 2530 ng/mL
Cmax (350 mg + 525 mg, read-out: Cmax, Mean): 2580 ng/mL
Cmax (350 mg + 525 mg, read-out: Cmax, Median): 2500 ng/mL
half-life (350 mg + 525 mg, read-out: Half-Life Lambda Z, Geometric Mean (converted)): 871 min
half-life (350 mg + 525 mg, read-out: Half-Life Lambda Z, Mean (converted)): ~900 min
half-life (350 mg + 525 mg, read-out: Half-Life Lambda Z, Median (converted)): 872 min
MRT (350 mg + 525 mg, read-out: Mean Residence Time, Geometric Mean): 23.9 h
MRT (350 mg + 525 mg, read-out: Mean Residence Time, Mean): 24.3 h
MRT (350 mg + 525 mg, read-out: Mean Residence Time, Median): 23.5 h
Tmax (350 mg + 525 mg, read-out: Tmax, Geometric Mean): 4.89 h
Tmax (350 mg + 525 mg, read-out: Tmax, Mean): 5 h
Vd/F (350 mg + 525 mg, read-out: Vz/F, Geometric Mean): 126 L
Vd/F (350 mg + 525 mg, read-out: Vz/F, Mean): 132 L
Vd/F (350 mg + 525 mg, read-out: Vz/F, Median): 116 L
concentration at 6 h (350 mg, 350 mg, read-out: Plasma concentration, Geometric Mean): 2620 ng/mL
